Our source for the TGI values is PubChem BioAssay (NCI).

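The compound was tested at five concentrations on cells cultured in 96-well plates, with a 48-hour exposure period. TGI: total growth inhibition.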 A value given as a limit tells only on which side of the number the result lay.

One test concerns MALME-3M melanoma. Briefly: DTP human tumour cell line panel, 48 h.
In general, TGI refers to the concentration at which net growth stops. High values mean less potent growth arrest, low ones more potent growth arrest. For `O=C1/C(=C\c2ccc(O)cc2)CCC/C1=C/c1ccc(Cl)c(Cl)c1`, the TGI was determined as 17.5 µM.

A further test deals with OVCAR-5 ovarian. Briefly: DTP human tumour cell line panel, 48 h.
As for `COc1cc2c(c(O)c1OC)-c1c(cc(OC)c(OC)c1OC)CC(C)C(C)C2` (stereo not given), the TGI was greater than 100 µM.
Still for that read-out and setting: under `O=C1c2ccccc2C(O)(O)C1(O)C1(O)C(=O)c2ccccc2C1(O)O` (stereo not given) stands greater than 100 µM.
On to `CC[C@]1(Cc2ccc(OC)c(OC)c2)C=[N+]([O-])O[C@H](OC2CCCC2(c2ccccc2)c2ccccc2)[C@@H]1OC(=O)c1ccccc1` (stereo not given in full), for which the TGI was greater than 100 µM.
Same read-out and setting: the result for `O=C1/C(=C\c2ccc(O)cc2)CCC/C1=C/c1ccc(Cl)c(Cl)c1` reads 34.3 µM.

The next test relates to M14 melanoma. Briefly: DTP human tumour cell line panel, 48 h.
The compound `COc1cc2c(c(O)c1OC)-c1c(cc(OC)c(OC)c1OC)CC(C)C(C)C2` (stereo not given) showed a TGI greater than 100 µM.
As for `O=C1c2ccccc2C(O)(O)C1(O)C1(O)C(=O)c2ccccc2C1(O)O` (stereo not given), the TGI was greater than 100 µM.
`CC[C@]1(Cc2ccc(OC)c(OC)c2)C=[N+]([O-])O[C@H](OC2CCCC2(c2ccccc2)c2ccccc2)[C@@H]1OC(=O)c1ccccc1` (stereo not given in full) came in with a TGI greater than 100 µM.
On the same count and under the same terms, under `O=C1/C(=C\c2ccc(O)cc2)CCC/C1=C/c1ccc(Cl)c(Cl)c1` stands 5.44 µM.

The next test deals with MDA-N. Description: DTP human tumour cell line panel, 48 h.
In turn, `COc1cc2c(c(O)c1OC)-c1c(cc(OC)c(OC)c1OC)CC(C)C(C)C2` (stereo not given) came in with a TGI greater than 100 µM.
The same measure, in the same setting: under `O=C1c2ccccc2C(O)(O)C1(O)C1(O)C(=O)c2ccccc2C1(O)O` (stereo not given) stands 48 µM.
Same read-out and setting: the result for `CC[C@]1(Cc2ccc(OC)c(OC)c2)C=[N+]([O-])O[C@H](OC2CCCC2(c2ccccc2)c2ccccc2)[C@@H]1OC(=O)c1ccccc1` (stereo not given in full) reads greater than 100 µM; that for `O=C1/C(=C\c2ccc(O)cc2)CCC/C1=C/c1ccc(Cl)c(Cl)c1`, 8.01 µM.

A further test deals with SK-MEL-5 melanoma. Briefly: DTP human tumour cell line panel, 48 h.
Take `COc1cc2c(c(O)c1OC)-c1c(cc(OC)c(OC)c1OC)CC(C)C(C)C2` (stereo not given): the concentration for total growth inhibition (TGI) is greater than 100 µM.
The same measure, in the same setting: under `O=C1c2ccccc2C(O)(O)C1(O)C1(O)C(=O)c2ccccc2C1(O)O` (stereo not given) stands 39.4 µM; under `CC[C@]1(Cc2ccc(OC)c(OC)c2)C=[N+]([O-])O[C@H](OC2CCCC2(c2ccccc2)c2ccccc2)[C@@H]1OC(=O)c1ccccc1` (stereo not given in full), 12.7 µM; under `O=C1/C(=C\c2ccc(O)cc2)CCC/C1=C/c1ccc(Cl)c(Cl)c1`, 19.6 µM.

For another test, the system named is RPMI-8226 leukemia. Description: DTP human tumour cell line panel, 48 h.
`COc1cc2c(c(O)c1OC)-c1c(cc(OC)c(OC)c1OC)CC(C)C(C)C2` (stereo not given): the concentration for total growth inhibition (TGI) was greater than 100 µM.
The same measure, in the same setting: the result for `O=C1c2ccccc2C(O)(O)C1(O)C1(O)C(=O)c2ccccc2C1(O)O` (stereo not given) reads greater than 100 µM; that for `O=C1/C(=C\c2ccc(O)cc2)CCC/C1=C/c1ccc(Cl)c(Cl)c1`, 5.76 µM.

Another test concerns HCT-116 colon. Description: DTP human tumour cell line panel, 48 h.
The compound `COc1cc2c(c(O)c1OC)-c1c(cc(OC)c(OC)c1OC)CC(C)C(C)C2` (stereo not given) gave a total growth inhibition concentration (TGI) greater than 100 µM.
Still for that read-out and setting: the result for `O=C1c2ccccc2C(O)(O)C1(O)C1(O)C(=O)c2ccccc2C1(O)O` (stereo not given) reads 54.1 µM; that for `CC[C@]1(Cc2ccc(OC)c(OC)c2)C=[N+]([O-])O[C@H](OC2CCCC2(c2ccccc2)c2ccccc2)[C@@H]1OC(=O)c1ccccc1` (stereo not given in full), greater than 100 µM; that for `O=C1/C(=C\c2ccc(O)cc2)CCC/C1=C/c1ccc(Cl)c(Cl)c1`, 4.01 µM.

The next test concerns CAKI-1 renal. Description: DTP human tumour cell line panel, 48 h.
`COc1cc2c(c(O)c1OC)-c1c(cc(OC)c(OC)c1OC)CC(C)C(C)C2` (stereo not given): the TGI was greater than 100 µM.
Turning to `O=C1c2ccccc2C(O)(O)C1(O)C1(O)C(=O)c2ccccc2C1(O)O` (stereo not given), the concentration for total growth inhibition (TGI) is greater than 100 µM.
Compound `CC[C@]1(Cc2ccc(OC)c(OC)c2)C=[N+]([O-])O[C@H](OC2CCCC2(c2ccccc2)c2ccccc2)[C@@H]1OC(=O)c1ccccc1` (stereo not given in full) registered a total growth inhibition concentration (TGI) greater than 100 µM.
On the same count and under the same terms, under `O=C1/C(=C\c2ccc(O)cc2)CCC/C1=C/c1ccc(Cl)c(Cl)c1` stands 16.7 µM.

The subject of the next test is UO-31 renal. Briefly: DTP human tumour cell line panel, 48 h.
`COc1cc2c(c(O)c1OC)-c1c(cc(OC)c(OC)c1OC)CC(C)C(C)C2` (stereo not given) had a TGI greater than 100 µM.
Same read-out and setting: under `O=C1c2ccccc2C(O)(O)C1(O)C1(O)C(=O)c2ccccc2C1(O)O` (stereo not given) stands 48.7 µM; under `CC[C@]1(Cc2ccc(OC)c(OC)c2)C=[N+]([O-])O[C@H](OC2CCCC2(c2ccccc2)c2ccccc2)[C@@H]1OC(=O)c1ccccc1` (stereo not given in full), greater than 100 µM.
The same measure, in the same setting: under `O=C1/C(=C\c2ccc(O)cc2)CCC/C1=C/c1ccc(Cl)c(Cl)c1` stands 5.6 µM.

The next test deals with SN12C renal. Description: DTP human tumour cell line panel, 48 h.
In the case of `COc1cc2c(c(O)c1OC)-c1c(cc(OC)c(OC)c1OC)CC(C)C(C)C2` (stereo not given), the TGI was greater than 100 µM.
Consider `O=C1c2ccccc2C(O)(O)C1(O)C1(O)C(=O)c2ccccc2C1(O)O` (stereo not given), for which the TGI worked out at 30.6 µM.
On the same count and under the same terms, the result for `CC[C@]1(Cc2ccc(OC)c(OC)c2)C=[N+]([O-])O[C@H](OC2CCCC2(c2ccccc2)c2ccccc2)[C@@H]1OC(=O)c1ccccc1` (stereo not given in full) reads greater than 88.2 µM; that for `O=C1/C(=C\c2ccc(O)cc2)CCC/C1=C/c1ccc(Cl)c(Cl)c1`, 10.4 µM.

The next test deals with NCI-H522 lung. Briefly: DTP human tumour cell line panel, 48 h.
In turn, `COc1cc2c(c(O)c1OC)-c1c(cc(OC)c(OC)c1OC)CC(C)C(C)C2` (stereo not given) registered a TGI greater than 100 µM.
For the compound `O=C1c2ccccc2C(O)(O)C1(O)C1(O)C(=O)c2ccccc2C1(O)O` (stereo not given), the TGI turned out to be 44.5 µM.
Same read-out and setting: under `CC[C@]1(Cc2ccc(OC)c(OC)c2)C=[N+]([O-])O[C@H](OC2CCCC2(c2ccccc2)c2ccccc2)[C@@H]1OC(=O)c1ccccc1` (stereo not given in full) stands greater than 100 µM.

The next test concerns K-562 leukemia. Description: DTP human tumour cell line panel, 48 h.
For `COc1cc2c(c(O)c1OC)-c1c(cc(OC)c(OC)c1OC)CC(C)C(C)C2` (stereo not given), the TGI is greater than 100 µM.
The compound `CC[C@]1(Cc2ccc(OC)c(OC)c2)C=[N+]([O-])O[C@H](OC2CCCC2(c2ccccc2)c2ccccc2)[C@@H]1OC(=O)c1ccccc1` (stereo not given in full) displayed a TGI greater than 100 µM.
On the same count and under the same terms, under `O=C1/C(=C\c2ccc(O)cc2)CCC/C1=C/c1ccc(Cl)c(Cl)c1` stands 11.9 µM.

A further test relates to HOP-92 NSCLC. Description: DTP human tumour cell line panel, 48 h.
`COc1cc2c(c(O)c1OC)-c1c(cc(OC)c(OC)c1OC)CC(C)C(C)C2` (stereo not given) came in with a TGI greater than 100 µM.
Same read-out and setting: under `O=C1c2ccccc2C(O)(O)C1(O)C1(O)C(=O)c2ccccc2C1(O)O` (stereo not given) stands greater than 100 µM; under `CC[C@]1(Cc2ccc(OC)c(OC)c2)C=[N+]([O-])O[C@H](OC2CCCC2(c2ccccc2)c2ccccc2)[C@@H]1OC(=O)c1ccccc1` (stereo not given in full), greater than 100 µM; under `O=C1/C(=C\c2ccc(O)cc2)CCC/C1=C/c1ccc(Cl)c(Cl)c1`, 28.9 µM.

In another test the test system is LOX IMVI melanoma. Briefly: DTP human tumour cell line panel, 48 h.
`COc1cc2c(c(O)c1OC)-c1c(cc(OC)c(OC)c1OC)CC(C)C(C)C2` (stereo not given) showed a TGI greater than 100 µM.
Same read-out and setting: the result for `O=C1c2ccccc2C(O)(O)C1(O)C1(O)C(=O)c2ccccc2C1(O)O` (stereo not given) reads 58.3 µM.
The same measure, in the same setting: the result for `CC[C@]1(Cc2ccc(OC)c(OC)c2)C=[N+]([O-])O[C@H](OC2CCCC2(c2ccccc2)c2ccccc2)[C@@H]1OC(=O)c1ccccc1` (stereo not given in full) reads greater than 27.5 µM.
The same measure, in the same setting: under `O=C1/C(=C\c2ccc(O)cc2)CCC/C1=C/c1ccc(Cl)c(Cl)c1` stands 3.62 µM.

Another test deals with T-47D breast. Briefly: DTP human tumour cell line panel, 48 h.
Compound `COc1cc2c(c(O)c1OC)-c1c(cc(OC)c(OC)c1OC)CC(C)C(C)C2` (stereo not given) returned a TGI greater than 100 µM.
Same read-out and setting: under `O=C1c2ccccc2C(O)(O)C1(O)C1(O)C(=O)c2ccccc2C1(O)O` (stereo not given) stands 60.3 µM; under `CC[C@]1(Cc2ccc(OC)c(OC)c2)C=[N+]([O-])O[C@H](OC2CCCC2(c2ccccc2)c2ccccc2)[C@@H]1OC(=O)c1ccccc1` (stereo not given in full), greater than 27.2 µM.
`O=C1/C(=C\c2ccc(O)cc2)CCC/C1=C/c1ccc(Cl)c(Cl)c1`: the TGI turned out to be 33.3 µM.

The test system of a further test is RXF 393 renal. Briefly: DTP human tumour cell line panel, 48 h.
In turn, `COc1cc2c(c(O)c1OC)-c1c(cc(OC)c(OC)c1OC)CC(C)C(C)C2` (stereo not given) showed a total growth inhibition concentration (TGI) greater than 100 µM.
